{"source": "PubChem BioAssay AID1918947", "about": "(Molecular Pharmacology Branch, DTP, NCI, 2023)", "system": "A498 complex spheroid viability", "test": "Anticancer human tumor A498 cell line growth inhibition;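 as to all read-outs here: spheroids exposed to agents for seven days before readout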;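 as to viability, T/C: 100% = DMSO vehicle-treated spheroids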", "settings": "for IC50: curve of first compound; for viability, T/C: stronger effect = lower value", "excerpt": "Multicellular complex tumor spheroid response to LSD1 Inhibitor Iadademstat in combination with a variety of drugs and investigational agents in selected tumor cell lines\nThe current study was undertaken to assess response to LSD1 inhibitors in combination with standard-of-care drugs and investigational agents in solid tumor complex spheroid models as well as in the K-562 leukemia. Complex spheroids include a stromal component modeled by human endothelial cells (HUVEC) and fibroblasts modeled by human mesenchymal stem cells (MSCs). The concentration ranges selected for each drug and investigational agent were based upon clinically achievable concentrations if the clinical Cmax of the agent was known.\nCompounds. The drugs and investigational agents used in this study are listed on Table 1. All of the agents used, including staurosporine (NSC755774) and gemcitabine (NSC613327), were obtained from the Developmental Therapeutics Program, NCI. FDA-approved anticancer drugs are available from the NCI at http://dtp.nci.nih.gov/branches/dscb/oncology_drugset_explanation.html. Drugs and investigational agents were >95% pure by proton nuclear magnetic resonance (NMR) and liquid chromatography/mass spectrometry (LC/MS). Stock solutions were prepared at 400x in DMSO, stored at -70 degrees C, and diluted in fresh medium prior to their use. The final concentration of DMSO in cell culture wells never exceeded 0.25% (v/v). The FDA-approved anticancer drug set is available from the Developmental Therapeutics Program at https://dtp.cancer.gov/organization/dscb/obtaining/available_plates.htm. All drugs and investigational agents were tested over a range starting from a high concentration at or near the clinical Cmax and decreasing in half-log increments. If the clinical Cmax for an agent had not been determined, the highest concentration tested was 10 microM.\nCell Lines. The patient-derived cancer cell (PDC) lines: 292921-168-R-J2-PDC, K24384-001-R-PDC, and 521955-158-R2-J5-PDC pancreatic carcinomas, 556581-035-R-J1 ovarian carcinoma, 324938-238-R-J1-PDC, 855422-203-R-J1-PDC and 883617-216-R-J1-PDC urothelial bladder carcinomas, 743489-274-T-PDC renal cell carcinoma, 138582-R-J1 Merkel cell tumor, K60290-347-R-J1 and K57222-313-R-J1-PDC glioblastomas, 653999-131-R-J2-PDC, LG0703-F948-PDC, and 349418-098-R-PDC non-small cell lung carcinomas, 885512-296-R-J2-PDC, 171881-019-R-J1-PDC breast carcinomas and 186277-243-T-J2-PDC and 233499-124-R-J2-PDC colon carcinomas were obtained from the NCI Patient-Derived Models Repository (PDMR, https://pdmr.cancer.gov). The established cell lines NCI/ADR-RES (RRID:CVCL_14520 and OVCAR-5 (RRID:CVCL_1628) ovarian carcinomas, 786-O (RRID:CVCL_1051) and A498 (RRID:CVCL_A498) renal cell carcinoma, NCI-H211 (ATCC, cat. CRL-5824; RRID:CVCL_1529), NCI-H196 (ATCC, cat. CRL-5823, RRID:CVCL_1509), SW 1271 (ATCC, cat. CRL-2177, RRID:CVCL_1716) and NCI-H1876 (ATCC, cat. CRL-5902, RRID:CVCL_1503) small cell lung carcinomas, MDA-MB-231 (RRID:CVCL_0062) and MDA-MB-468 (RRID:CVCL_0419)breast carcinomas (10-12). Pooled donor human umbilical vein endothelial cells (HUVEC, Lonza, cat. CC-2519) and human mesenchymal stem cells (hMSC, Lonza, cat. PT-2501) were purchased from Lonza (Walkersville, MD).\nCell Culture. All cells were maintained in an incubator at 37 degrees C and 5% CO2 with 95% humidity. The PDC lines were cultured according to standard operating procedures established by the NCI PDMR (https://pdmr.cancer.gov). Briefly all PDCs were thawed and cultured in Matrigel-coated flasks prepared with a working solution of 1X Ham's F-12 nutrient mix, without supplementation (Invitrogen, Waltham, MA, cat. 11765054), 100 U/mL penicillin-streptomycin (Invitrogen, cat. 15140122), and 2.5% Matrigel (Corning Inc., Corning, NY, cat. 354248) for the first three passages. […]", "data": [{"smiles": "NS(=O)(=O)OCC1CC(n2ccc3c(NC4CCc5ccccc54)ncnc32)CC1O", "note": "(stereo not given) + NC1CC1c1ccc(-c2cccc(O)c2)cc1", "values": [{"measurement": "IC50", "setting": "second compound 0.1 µM", "value": 0.0572, "unit": "µM"}, {"measurement": "IC50", "setting": "second compound 0.316 µM", "value": 0.071, "unit": "µM"}, {"measurement": "IC50", "setting": "second compound 1 µM", "value": 0.0786, "unit": "µM"}, {"measurement": "IC50", "setting": "second compound 3.16 µM", "value": 0.0764, "unit": "µM"}, {"measurement": "IC50", "setting": "second compound 10 µM", "value": 0.0463, "unit": "µM"}, {"measurement": "viability, T/C", "setting": "second compound 0.1 µM, first compound 0.00949 µM", "value": 99, "unit": "%"}, {"measurement": "viability, T/C", "setting": "second compound 0.1 µM, first compound 0.03 µM", "value": 70.4, "unit": "%"}, {"measurement": "viability, T/C", "setting": "second compound 0.1 µM, first compound 0.0949 µM", "value": 32.4, "unit": "%"}, {"measurement": "viability, T/C", "setting": "second compound 0.1 µM, first compound 0.3 µM", "value": 23.4, "unit": "%"}, {"measurement": "viability, T/C", "setting": "second compound 0.1 µM, first compound 0.949 µM", "value": 15.9, "unit": "%"}, {"measurement": "viability, T/C", "setting": "second compound 0.1 µM, first compound 3 µM", "value": 12.4, "unit": "%"}, {"measurement": "viability, T/C", "setting": "second compound 0.316 µM, first compound 0.00949 µM", "value": 100, "unit": "%"}, {"measurement": "viability, T/C", "setting": "second compound 0.316 µM, first compound 0.03 µM", "value": 78.5, "unit": "%"}, {"measurement": "viability, T/C", "setting": "second compound 0.316 µM, first compound 0.0949 µM", "value": 39.6, "unit": "%"}, {"measurement": "viability, T/C", "setting": "second compound 0.316 µM, first compound 0.3 µM", "value": 21.4, "unit": "%"}, {"measurement": "viability, T/C", "setting": "second compound 0.316 µM, first compound 0.949 µM", "value": 15.6, "unit": "%"}, {"measurement": "viability, T/C", "setting": "second compound 0.316 µM, first compound 3 µM", "value": 12, "unit": "%"}, {"measurement": "viability, T/C", "setting": "second compound 1 µM, first compound 0.00949 µM", "value": 96.2, "unit": "%"}, {"measurement": "viability, T/C", "setting": "second compound 1 µM, first compound 0.03 µM", "value": 83.2, "unit": "%"}, {"measurement": "viability, T/C", "setting": "second compound 1 µM, first compound 0.0949 µM", "value": 41.1, "unit": "%"}, {"measurement": "viability, T/C", "setting": "second compound 1 µM, first compound 0.3 µM", "value": 25.9, "unit": "%"}, {"measurement": "viability, T/C", "setting": "second compound 1 µM, first compound 0.949 µM", "value": 16.1, "unit": "%"}, {"measurement": "viability, T/C", "setting": "second compound 1 µM, first compound 3 µM", "value": 12.8, "unit": "%"}, {"measurement": "viability, T/C", "setting": "second compound 3.16 µM, first compound 0.00949 µM", "value": 101, "unit": "%"}, {"measurement": "viability, T/C", "setting": "second compound 3.16 µM, first compound 0.03 µM", "value": 73.7, "unit": "%"}, {"measurement": "viability, T/C", "setting": "second compound 3.16 µM, first compound 0.0949 µM", "value": 43.5, "unit": "%"}, {"measurement": "viability, T/C", "setting": "second compound 3.16 µM, first compound 0.3 µM", "value": 27.7, "unit": "%"}, {"measurement": "viability, T/C", "setting": "second compound 3.16 µM, first compound 0.949 µM", "value": 19, "unit": "%"}, {"measurement": "viability, T/C", "setting": "second compound 3.16 µM, first compound 3 µM", "value": 14.9, "unit": "%"}, {"measurement": "viability, T/C", "setting": "second compound 10 µM, first compound 0.00949 µM", "value": 90.8, "unit": "%"}, {"measurement": "viability, T/C", "setting": "second compound 10 µM, first compound 0.03 µM", "value": 53.2, "unit": "%"}, {"measurement": "viability, T/C", "setting": "second compound 10 µM, first compound 0.0949 µM", "value": 40.3, "unit": "%"}, {"measurement": "viability, T/C", "setting": "second compound 10 µM, first compound 0.3 µM", "value": 29.9, "unit": "%"}, {"measurement": "viability, T/C", "setting": "second compound 10 µM, first compound 0.949 µM", "value": 18.4, "unit": "%"}, {"measurement": "viability, T/C", "setting": "second compound 10 µM, first compound 3 µM", "value": 15, "unit": "%"}]}, {"smiles": "Nc1ncn(C2CC(O)C(CO)O2)c(=O)n1", "note": "(stereo not given) + NC1CCC(NC2CC2c2ccccc2)CC1", "values": [{"measurement": "IC50", "setting": "second compound 0.1 µM", "value": 0.177, "unit": "µM"}, {"measurement": "IC50", "setting": "second compound 0.316 µM", "value": 0.279, "unit": "µM"}, {"measurement": "IC50", "setting": "second compound 1 µM", "value": 0.218, "unit": "µM"}, {"measurement": "IC50", "setting": "second compound 3.16 µM", "value": 0.195, "unit": "µM"}, {"measurement": "IC50", "setting": "second compound 10 µM", "value": 0.224, "unit": "µM"}, {"measurement": "viability, T/C", "setting": "second compound 0.1 µM, first compound 0.00316 µM", "value": 89.7, "unit": "%"}, {"measurement": "viability, T/C", "setting": "second compound 0.1 µM, first compound 0.01 µM", "value": 88.5, "unit": "%"}, {"measurement": "viability, T/C", "setting": "second compound 0.1 µM, first compound 0.0316 µM", "value": 88.5, "unit": "%"}, {"measurement": "viability, T/C", "setting": "second compound 0.1 µM, first compound 0.1 µM", "value": 60.7, "unit": "%"}, {"measurement": "viability, T/C", "setting": "second compound 0.1 µM, first compound 0.316 µM", "value": 40, "unit": "%"}, {"measurement": "viability, T/C", "setting": "second compound 0.1 µM, first compound 1 µM", "value": 36.7, "unit": "%"}, {"measurement": "viability, T/C", "setting": "second compound 0.316 µM, first compound 0.00316 µM", "value": 93.1, "unit": "%"}, {"measurement": "viability, T/C", "setting": "second compound 0.316 µM, first compound 0.01 µM", "value": 95.7, "unit": "%"}, {"measurement": "viability, T/C", "setting": "second compound 0.316 µM, first compound 0.0316 µM", "value": 90.7, "unit": "%"}, {"measurement": "viability, T/C", "setting": "second compound 0.316 µM, first compound 0.1 µM", "value": 72.9, "unit": "%"}, {"measurement": "viability, T/C", "setting": "second compound 0.316 µM, first compound 0.316 µM", "value": 47.3, "unit": "%"}, {"measurement": "viability, T/C", "setting": "second compound 0.316 µM, first compound 1 µM", "value": 40.5, "unit": "%"}, {"measurement": "viability, T/C", "setting": "second compound 1 µM, first compound 0.00316 µM", "value": 89.2, "unit": "%"}, {"measurement": "viability, T/C", "setting": "second compound 1 µM, first compound 0.01 µM", "value": 89.7, "unit": "%"}, {"measurement": "viability, T/C", "setting": "second compound 1 µM, first compound 0.0316 µM", "value": 89.2, "unit": "%"}, {"measurement": "viability, T/C", "setting": "second compound 1 µM, first compound 0.1 µM", "value": 62.4, "unit": "%"}, {"measurement": "viability, T/C", "setting": "second compound 1 µM, first compound 0.316 µM", "value": 46.4, "unit": "%"}, {"measurement": "viability, T/C", "setting": "second compound 1 µM, first compound 1 µM", "value": 34.9, "unit": "%"}, {"measurement": "viability, T/C", "setting": "second compound 3.16 µM, first compound 0.00316 µM", "value": 82.5, "unit": "%"}, {"measurement": "viability, T/C", "setting": "second compound 3.16 µM, first compound 0.01 µM", "value": 88.4, "unit": "%"}, {"measurement": "viability, T/C", "setting": "second compound 3.16 µM, first compound 0.0316 µM", "value": 78.4, "unit": "%"}, {"measurement": "viability, T/C", "setting": "second compound 3.16 µM, first compound 0.1 µM", "value": 66.6, "unit": "%"}, {"measurement": "viability, T/C", "setting": "second compound 3.16 µM, first compound 0.316 µM", "value": 38.1, "unit": "%"}, {"measurement": "viability, T/C", "setting": "second compound 3.16 µM, first compound 1 µM", "value": 29.3, "unit": "%"}, {"measurement": "viability, T/C", "setting": "second compound 10 µM, first compound 0.00316 µM", "value": 78, "unit": "%"}, {"measurement": "viability, T/C", "setting": "second compound 10 µM, first compound 0.01 µM", "value": 78.2, "unit": "%"}, {"measurement": "viability, T/C", "setting": "second compound 10 µM, first compound 0.0316 µM", "value": 79.9, "unit": "%"}, {"measurement": "viability, T/C", "setting": "second compound 10 µM, first compound 0.1 µM", "value": 68.4, "unit": "%"}, {"measurement": "viability, T/C", "setting": "second compound 10 µM, first compound 0.316 µM", "value": 42.2, "unit": "%"}, {"measurement": "viability, T/C", "setting": "second compound 10 µM, first compound 1 µM", "value": 31.9, "unit": "%"}]}]}
